Among the data in patent US9221809B2 (MERCK SHARP & DOHME CORP., priority 2011, dated 2015) are IC50 values, retold here.

For orientation: pIC50 means the negative decadic logarithm of the IC50, by convention in mol/L.

The structures appear in SMILES notation. pIC50: −log10 of the molar value. Where a name gives a salt, the structure may show the parent alone. Read-outs that look alike come from different tables or passages of the source.

The target of the assay is IRAK4 (Homo sapiens (Human), UniProt Q9NWZ3). Nature of the assay: IRAK4 kinase activity, IMAP fluorescence polarization assay. Format: biochemical. The conditions noted are these: 100 μM ATP. As for the experimental part: The kinase activity of IRAK4 is determined by its ability to catalyze the phosphorylation of a fluorescent polypeptide substrate. The extent of phosphorylation is measured using IMAP technology (Molecular Devices) where the phosphorylated fluorescent substrate binds to the large M(III)-based nanoparticles which reduces the rotational speed of the substrate and thus increases its fluorescent polarization (FP).
IRAK4, sequence (Q9NWZ3 whole entry): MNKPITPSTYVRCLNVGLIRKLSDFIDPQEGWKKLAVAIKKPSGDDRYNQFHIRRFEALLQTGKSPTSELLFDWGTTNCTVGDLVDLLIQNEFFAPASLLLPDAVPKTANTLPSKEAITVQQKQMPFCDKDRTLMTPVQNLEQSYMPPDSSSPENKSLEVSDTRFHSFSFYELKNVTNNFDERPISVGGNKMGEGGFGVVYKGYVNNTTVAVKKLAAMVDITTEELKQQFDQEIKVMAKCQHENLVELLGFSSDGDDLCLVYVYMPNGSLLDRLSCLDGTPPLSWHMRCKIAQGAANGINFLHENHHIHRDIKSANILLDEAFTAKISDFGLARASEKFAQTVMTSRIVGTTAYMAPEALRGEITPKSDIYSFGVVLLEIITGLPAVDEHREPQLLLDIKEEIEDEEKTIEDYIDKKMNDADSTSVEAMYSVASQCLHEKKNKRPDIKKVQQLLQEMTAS
Assay Procedure: A 20 μl reaction mixture contains 10 mM TriHCl, pH 7.2, 0.5 nM GST tagged IRAK4 (SignalChem), 100 nM fluorescent peptide substrate (RP7030, Molecular Devices), 100 μM ATP, 1 mM DTT, 1 mM MgCl2, and 0.01% Tween 20. The reaction is initiated by the addition of ATP. After incubation for 30 minutes at 25° C., 60 μl of Progressive IMAP Reagent (Molecular Devices) is added to stop the reaction. Change in RP7030's FP is determined by a FP reader (Analyst HT, LJL BioSystems)
A general note: In fluorescence polarisation assays a small probe gives low polarisation when free and higher when bound to something large.

[1] abbreviates: 0.5 nM GST tagged IRAK4, read-out: IRAK4 IC50.
The mark [2] stands for this setting: unit inferred, read-out: IRAK4 IC50.

`N#Cc1ccnc(-c2c(N[C@@H]3CCCNC3)nc(N3CCOCC3)[nH]c2=O)c1` [Example 222, (R)-2-(2-morpholino-6-oxo-4-(piperidin-3-ylamino)-1,6-dihydropyrimidin-5-yl)isonicotinonitrile]: for the setting “read-out: IC50”, the pIC50 was 5.25.

On to `CC(C)(O)[C@H]1C[C@@H](Nc2nc(NC3CCC3)[nH]c(=O)c2-c2nc3ccccc3s2)[C@H](O)[C@@H]1O` [Example 45, 5-(Benzo[d]thiazol-2-yl)-2-(cyclobutylamino)-6-((1R,2S,3R,4S)-2,3-dihydroxy-4-(2-hydroxypropan-2-yl)cyclopentylamino)pyrimidin-4(3H)-one.HCl], for which, under setting [1], the pIC50 is 7.19.

Take `O=c1[nH]c(N2CCN(c3nccs3)CC2)nc(N[C@@H]2CCCNC2)c1-c1nc2ccccc2s1` [Example 149, (R)-5-(benzo[d]thiazol-2-yl)-6-(piperidin-3-ylamino)-2-(4-(thiazol-2-yl)piperazin-1-yl)pyrimidin-4(3H)-one]: for the setting “read-out: IRAK4 IC50”, the pIC50 is 7.92.

For the compound `CO[C@H]1CCN(c2nc(N[C@@H]3CCCNC3)c(-c3ccc4ccccc4n3)c(=O)[nH]2)C1` [Example 178, 2-((S)-3-methoxypyrrolidin-1-yl)-6-((R)-piperidin-3-ylamino)-5-(quinolin-2-yl)pyrimidin-4(3H)-one], the pIC50 (read-out: IRAK4 IC50) is 7.46.

For `O=c1[nH]c(N2CCC(c3ccccc3)CC2)nc(N[C@@H]2CCCNC2)c1-c1ccc2ccccc2n1` [Example 187, (R)-2-(4-phenylpiperidin-1-yl)-6-(piperidin-3-ylamino)-5-(quinolin-2-yl)pyrimidin-4(3H)-one], the pIC50 (read-out: IRAK4 IC50) was 7.80.

As to `O=c1[nH]c(N2CC3(COC3)C2)nc(N[C@@H]2C[C@H](CO)[C@@H](O)[C@H]2O)c1-c1nc2ccccc2s1` [Example 13, 5-(Benzo[d]thiazol-2-yl)-6-((1R,2S,3R,4R)-2,3-dihydroxy-4-(hydroxymethyl)cyclopentylamino)-2-(2-oxa-6-azaspiro[3.3]heptan-6-yl)pyrimidin-4(3H)-one.HCl], under setting [1], the pIC50 is 8.05.

As to `O=c1[nH]c(N2CCCCC2)nc(N[C@@H]2CCCNC2)c1-c1nc2c(C3CC3)nccc2s1` [Example 117, (R)-5-(4-cyclopropylthiazolo[4,5-c]pyridin-2-yl)-2-(piperidin-1-yl)-6-(piperidin-3-ylamino)pyrimidin-4(3H)-one.HCl], the pIC50 under setting [1] was 8.07.

On to `O=c1[nH]c(N2CCC(c3cncnc3)CC2)nc(N[C@@H]2C[C@H](CO)[C@@H](O)[C@H]2O)c1-c1nc2ccccc2s1` [Example 64, 5-(benzo[d]thiazol-2-yl)-6-((1R,2S,3R,4R)-2,3-dihydroxy-4-(hydroxymethyl)cyclopentylamino)-2-(4-(pyrimidin-5-yl)piperidin-1-yl)pyrimidin-4(3H)-one], for which, under setting [2], the pIC50 was 8.21.

Consider `CC1CCC(Nc2nc(N3CCOCC3)[nH]c(=O)c2-c2ccc3ccccc3n2)CN1` (centres unmarked) [Example 107, 6-((6-methylpiperidin-3-yl)amino)-2-morpholino-5-(quinolin-2-yl)pyrimidin-4(3H)-one.HCl], for which, under setting [1], the pIC50 was 7.04.

Take `O=c1[nH]c(N2CCOCC2)nc(N[C@H]2CNC[C@H](O)C2)c1-c1nc2ccccc2s1` [Example 105, 5-(benzo[d]thiazol-2-yl)-6-(((3R,5R)-5-hydroxypiperidin-3-yl)amino)-2-morpholinopyrimidin-4(3H)-one.HCl]: the pIC50 under setting [1] is 7.07.

Consider `NC(=O)c1ccc2sc(-c3c(N[C@@H]4CCCNC4)nc(N4CCOCC4)[nH]c3=O)nc2c1` [Example 347, (R)-2-(2-morpholino-6-oxo-4-(piperidin-3-ylamino)-1,6-dihydropyrimidin-5-yl)benzo[d]thiazole-5-carboxamide], for which, under setting [1], the pIC50 was 8.00.

For `C[C@H]1COCCN1c1nc(N[C@@H]2CCCNC2)c(-c2nc3ccccc3s2)c(=O)[nH]1` [Example 128], the pIC50 (read-out: IRAK4 IC50) was 6.37.

For the compound `O=c1[nH]c(C2CCN(c3cccnc3)CC2)nc(N[C@@H]2CCCNC2)c1-c1nc2ccccc2s1` [Example 245, (R)-5-(benzo[d]thiazol-2-yl)-6-(piperidin-3-ylamino)-2-(1-(pyridin-3-yl)piperidin-4-yl)pyrimidin-4(3H)-one], the pIC50 (read-out: IC50) is 7.05.

On to `O=c1[nH]c(N2CCN(c3ccccc3C(F)(F)F)CC2)nc(N[C@@H]2CCCNC2)c1-c1nc2ccccc2s1` [Example 148, (R)-5-(benzo[d]thiazol-2-yl)-6-(piperidin-3-ylamino)-2-(4-(2-(trifluoromethyl)phenyl)piperazin-1-yl)pyrimidin-4(3H)-one], for which the pIC50 (read-out: IRAK4 IC50) was 7.35.

`O=c1[nH]c(C2CCN(C3CCCCC3)CC2)nc(N[C@@H]2CCCNC2)c1-c1nc2ccccc2s1` [Example 232, (R)-5-(1,3-benzothiazol-2-yl)-2-(1-cyclo-hexylpiperidin-4-yl)-6-[(piperidin-3-yl)amino]-3,4-dihydropyrimidin-4-one]: the pIC50 (read-out: IC50) was 6.35.

Turning to `O=c1[nH]c(N2CCOCC2)nc(N[C@@H]2CCCNC2)c1-c1cncc(-n2cccc2)n1` [Example 198], the pIC50 (read-out: IRAK4 IC50) was 5.46.

On to `O=c1[nH]c(C2CCN(S(=O)(=O)C3CC3)CC2)nc(N[C@@H]2CCCNC2)c1-c1nc2ccccc2s1` [Example 238, (R)-5-(1,3-benzothiazol-2-yl) 2-[1-(cyclopropane-sulfonyl)piperidin-4-yl]-6-[(piperidin-3-yl)amino]-3,4-dihydropyrimidin-4-one], for which the pIC50 (read-out: IC50) is 6.77.

Consider `O=c1[nH]c(N[C@H]2CCCNC2)nc(N[C@@H]2C[C@H](CO)[C@@H](O)[C@H]2O)c1-c1nc2ccccc2s1` [Example 39, 5-(Benzo[d]thiazol-2-yl)-6-(((1R,2S,3R,4R)-2,3-dihydroxy-4-(hydroxymethyl)cyclopentyl)amino)-2-((S)-piperidin-3-ylamino)pyrimidin-4(3H)-one.HCl], for which the pIC50 under setting [1] is 5.37.

On to `CC1(Nc2nc(N3CCOCC3)[nH]c(=O)c2-c2nc3ccccc3s2)CCCNC1` (centres unmarked) [Example 248, 5-(1,3-benzothiazol-2-yl)-6-[(3-methylpiperidin-3-yl)amino]-2-(morpholin-4-yl)-3,4-dihydro-pyrimidin-4-one], for which the pIC50 (read-out: IC50) was 6.82.

Turning to `C[C@@H]1CC[C@@H](Nc2nc(N3CCOCC3)[nH]c(=O)c2-c2nc3ccccc3s2)CN1` (racemic) [Example 124, 5-(benzo[d]thiazol-2-yl)-6((6-methylpiperidin-3-yl)amino)-2-morpholinopyrimidin-4(3H)-one.HCl], the pIC50 under setting [1] was 6.94.

As to `COCC1CN(c2nc(N[C@@H]3CCCNC3)c(-c3nc4ccccc4s3)c(=O)[nH]2)CCO1` (stereo partly drawn) [Example 286, 5-(benzo[d]thiazol-2-yl)-2-(2-(methoxymethyl)morpholino)-6-((R)-piperidin-3-ylamino)pyrimidin-4(3H)-one], under “read-out: IC50”, the pIC50 is 7.09.

As for `Nc1nc(N[C@@H]2C[C@H](CO)[C@@H](O)[C@H]2O)c(-c2nc3ccccc3s2)c(=O)[nH]1` [Example 2, 2-Amino-5-(benzo[d]thiazol-2-yl)-6-((1R,2S,3R,4R)-2,3-dihydroxy-4-(hydroxymethyl)cyclopentylamino)pyrimidin-4(3H)-one.HCl], the negative logarithm of the IC50 (pIC50) under setting [1] is 6.16.

For the compound `CO[C@H]1CN(c2nc(N[C@@H]3CCCNC3)c(-c3ccc4ccccc4n3)c(=O)[nH]2)C[C@@H]1O` [Example 173, 2-((3S,4S)-3-hydroxy-4-methoxypyrrolidin-1-yl)-6-((R)-piperidin-3-ylamino)-5-(quinolin-2-yl)pyrimidin-4(3H)-one], under “read-out: IRAK4 IC50”, the pIC50 is 7.40.

In the case of `CN1CCC2(CCN(c3nc(N[C@@H]4C[C@H](CO)[C@@H](O)[C@H]4O)c(-c4nc5ccccc5s4)c(=O)[nH]3)CC2)C1=O` [Example 66, 8-(5-(benzo[d]thiazol-2-yl)-4-((1R,2S,3R,4R)-2,3-dihydroxy-4-(hydroxymethyl)cyclopentylamino)-6-oxo-1,6-dihydropyrimidin-2-yl)-2-methyl-2,8-diazaspiro[4.5]decan-1-one], under setting [2], the pIC50 was 8.06.

As to `CC1CN(c2nc(N[C@@H]3CCCNC3)c(-c3nc4ccccc4s3)c(=O)[nH]2)CCO1` (stereo partly drawn) [Example 126, 5-(benzo[d]thiazol-2-yl)-2-(2-methylmorpholino)-6-((R)-piperidin-3-ylamino)pyrimidin-4(3H)-one], the pIC50 (read-out: IRAK4 IC50) is 7.01.

With `NC(=O)CNc1nc(N[C@@H]2CCCNC2)c(-c2nc3ccccc3s2)c(=O)[nH]1` [Example 302, (R)-2-(5-(benzo[d]thiazol-2-yl)-6-oxo-4-(piperidin-3-ylamino)-1,6-dihydropyrimidin-2-ylamino)acetamide bis(2,2,2-trifluoroacetate)], the pIC50 (read-out: IC50) is 5.64.

For `O=c1[nH]c(N2CCC(F)(F)CC2)nc(N[C@@H]2C[C@H](CO)[C@@H](O)[C@H]2O)c1-c1nc2ccccc2s1` [Example 27, 5-(Benzo[d]thiazol-2-yl)-2-(4,4-difluoropiperidin-1-yl)-6-(((1R,2S,3R,4R)-2,3-dihydroxy-4-(hydroxymethyl)cyclopentyl)amino)pyrimidin-4(3H)-one.HCl], under setting [1], the pIC50 was 6.87.

As for `O=c1[nH]c(N2CCN(c3cccnc3)CC2)nc(N[C@@H]2C[C@H](CO)[C@@H](O)[C@H]2O)c1-c1nc2ccccc2s1` [Example 63, 5-(benzo[d]thiazol-2-yl)-6-((1R,2S,3R,4R)-2,3-dihydroxy-4-(hydroxymethyl)cyclopentylamino)-2-(4-(pyridin-3-yl)piperazin-1-yl)pyrimidin-4(3H)-one], the pIC50 under setting [2] is 8.43.

With `O=C(O)C1CN(c2nc(N[C@@H]3CCCNC3)c(-c3nc4ccccc4s3)c(=O)[nH]2)CCO1` (stereo partly drawn) [Example 320, 4-[5-(1,3-benzothiazol-2-yl)-6-oxo-4-[[(3R)-piperidin-3-yl]amino]-1,6-dihydropyrimidin-2-yl]morpholine-2-carboxylic acid], the pIC50 (read-out: IC50) was 6.60.
